± gives the expanded uncertainty stated by the source.
Assay: wn = mass fraction of the nth substance listed
Settings: 88.35 kPa, Liquid, Pycnometric method

- mass density (298.15 K, w1 = 0.2672): 1180 ± 12 kg/m3
- mass density (313.15 K, w1 = 0.29): 1192 ± 12 kg/m3
Structure (SMILES): [Cl-].[K+] [potassium chloride] + O
